Data published in PubChem BioAssay AID2060505 (Molecular Pharmacology Branch, DTP, NCI, 2025).

System: 633275-114-R-J1-PDC complex spheroids, viability
Experiment: Anticancer human tumor 633275-114-R-J1-PDC patient-derived endometrial adenocarcinoma cell line growth inhibition [GQUAD]
Conditions: for IC50: curve of first compound; for viability, T/C: stronger effect = lower value
Text: DNA G-quadruplex Stabilizer Agents in Combinations in Complex Spheroids
A high-throughput screen of multi-cell type tumor spheroids was designed to identify active combinations of DNA G-quadruplex stabilizer agents and targeted small molecules. Complex spheroids include a stromal component modeled by human endothelial cells (HUVEC) and fibroblasts modeled by human mesenchymal stem cells (MSCs). The concentration ranges selected for each drug and investigational agent were based upon clinically achievable concentrations if the clinical Cmax of the agent was known.
Compounds. The drugs and investigational agents: pidnarulex (CX-5461; NSC782164), APTO-253 (NSC789042), BRACO-19 (NSC847499), peposertib (NSC802822), ceralasertib (NSC780249), elimusertib (NSC800525), camonsertib (NSC841442), AZD-1390 (NSC803789), olaparib (NSC753686), talazoparib (NSC767125), ART-558 (NSC835418), sotorasib (NSC818433), MRTX-1133 (NSC836407), SN-38 (NSC673596), topotecan (NSC609699), etoposide (NSC141540), doxorubicin (NSC123127), gemcitabine (NSC613327), 5-fluorouracil (NSC19893), paclitaxel (NSC125973), vemurafenib (NSC761431), panobinostat (NSC761190), R-306465 (JNJ-16241199; NSC773264), adavosertib (NSC754352), TP-3654 (NSC805149), carboplatin (NSC241240), KSQ-4279 (NSC840948), and staurosporine (NSC755774) were obtained from the National Cancer Institute (NCI) Developmental Therapeutics Program Chemical Repository (34). The FDA-approved anticancer drug set is available from the NCI Developmental Therapeutics Program. […] The stock solutions were prepared in dimethyl sulfoxide (DMSO, Sigma-Aldrich, St. Louis, MO, cat. D2650) at 800-fold the tested concentration and stored at -70 degrees C prior to their use. All drugs and investigational agents were tested over a range starting from a high concentration at or near the clinical Cmax and decreasing in half-log increments. If the clinical Cmax for an agent had not been determined, the highest concentration tested was 10 microM.
2.3 Cell Culture. All cells were maintained in an incubator at 37 degrees C and 5% CO2 with 95% humidity. The PDC lines were cultured according to standard operating procedures established by the NCI PDMR. All PDCs were thawed and cultured in Matrigel-coated flasks prepared with a working solution of 1X Ham's F-12 nutrient mix, without supplementation (Invitrogen, cat. 11765054), 100 U/mL penicillin-streptomycin (Invitrogen, cat. 15140122), and 2.5% Matrigel (Corning Inc., cat. 354248) for the first three passages. The 857933-349-R-J2-PDC line was cultured in 6C/Colon 1B media, which includes advanced DMEM/F-12 (Thermo Fisher Scientific, cat. 12634028), 10 mM HEPES (Thermo Fisher Scientific, cat. 15630080), 1X GlutaMAX supplement (Thermo Fisher Scientific, cat. 35050061), 0.1 mg/mL primocin (InvivoGen, cat. ant-pm-2), 10% defined fetal bovine serum, heat inactivated (HyClone Laboratories Inc., cat. SH30070.03HI), 50% L-WRN conditioned media (ATCC, cat. CRL-3276), 1.25 mM N-Acetyl-L-cysteine (Sigma-Aldrich, cat. A9165), 10 mM nicotinamide (Sigma-Aldrich, cat. N0636), 1X B-27 supplement (Thermo Fisher Scientific, cat. 17504044), 1X N-2 supplement (Thermo Fisher Scientific, cat. 17502048), 10 microM Y-27632 dihydrochloride (Tocris Bioscience, cat. 1254), and 50 ng/mL human EGF recombinant protein (Thermo Fisher Scientific, cat. PHG0311). The 485176-168-R4-J1-PDC line was cultured in Panc media, which includes all 6C/Colon 1B media components plus 100 ng/mL human FGF-10 (Thermo Fisher Scientific, cat. 100-26), 500 nM SB-431542 (Selleckchem, cat. S1067), and gastrin (Tocris, cat. 3006).
[…]

[1] = second compound 0.0316 µM, first compound 0.0316 µM
[2] = second compound 0.0316 µM, first compound 0.1 µM
[3] = second compound 0.0316 µM, first compound 0.316 µM
[4] = second compound 0.0316 µM, first compound 1 µM
[5] = second compound 0.0316 µM, first compound 3.16 µM
[6] = second compound 0.0316 µM, first compound 10 µM
[7] = second compound 0.1 µM, first compound 0.0316 µM
[8] = second compound 0.1 µM, first compound 0.1 µM
[9] = second compound 0.1 µM, first compound 0.316 µM
[10] = second compound 0.1 µM, first compound 1 µM
[11] = second compound 0.1 µM, first compound 3.16 µM
[12] = second compound 0.1 µM, first compound 10 µM
[13] = second compound 0.316 µM, first compound 0.0316 µM
[14] = second compound 0.316 µM, first compound 0.1 µM
[15] = second compound 0.316 µM, first compound 0.316 µM
[16] = second compound 0.316 µM, first compound 1 µM
[17] = second compound 0.316 µM, first compound 3.16 µM
[18] = second compound 0.316 µM, first compound 10 µM
[19] = second compound 1 µM, first compound 0.0316 µM
[20] = second compound 1 µM, first compound 0.1 µM
[21] = second compound 1 µM, first compound 0.316 µM
[22] = second compound 1 µM, first compound 1 µM
[23] = second compound 1 µM, first compound 3.16 µM
[24] = second compound 1 µM, first compound 10 µM
[25] = second compound 3.16 µM, first compound 0.0316 µM
[26] = second compound 3.16 µM, first compound 0.1 µM
[27] = second compound 3.16 µM, first compound 0.316 µM
[28] = second compound 3.16 µM, first compound 1 µM
[29] = second compound 3.16 µM, first compound 3.16 µM
[30] = second compound 3.16 µM, first compound 10 µM
[31] = second compound 10 µM, first compound 0.0316 µM
[32] = second compound 10 µM, first compound 0.1 µM
[33] = second compound 10 µM, first compound 0.316 µM
[34] = second compound 10 µM, first compound 1 µM
[35] = second compound 10 µM, first compound 3.16 µM
[36] = second compound 10 µM, first compound 10 µM
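Also: spheroids exposed to the agents for seven days.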
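For viability, T/C in this document: percent of DMSO vehicle control viability which is 100%.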

## COc1cc(C2c3cc4c(cc3C(OC3OC5COC(C)OC5C(O)C3O)C3COC(=O)C23)OCO4)cc(OC)c1O (stereo unspecified) + Cc1[nH]c2ccc(F)cc2c1-c1nc2c3cccnc3c3ncccc3c2[nH]1
Second compound 0.0316 µM
  IC50: 446 nM
Second compound 0.1 µM
  IC50: 410 nM
Second compound 0.316 µM
  IC50: 429 nM
Second compound 1 µM
  IC50: 358 nM
Second compound 3.16 µM
  IC50: 158 nM
Second compound 10 µM
  IC50: 169 nM
[1]
  viability, T/C: 88.3%
[2]
  viability, T/C: 67.3%
[3]
  viability, T/C: 52.6%
[4]
  viability, T/C: 41.9%
[5]
  viability, T/C: 40%
[6]
  viability, T/C: 30.4%
[7]
  viability, T/C: 87.8%
[8]
  viability, T/C: 72.5%
[9]
  viability, T/C: 50.1%
[10]
  viability, T/C: 41.7%
[11]
  viability, T/C: 39.2%
[12]
  viability, T/C: 30.7%
[13]
  viability, T/C: 85.5%
[14]
  viability, T/C: 69.5%
[15]
  viability, T/C: 51%
[16]
  viability, T/C: 42.2%
[17]
  viability, T/C: 38.3%
[18]
  viability, T/C: 31.3%
[19]
  viability, T/C: 86.5%
[20]
  viability, T/C: 65.2%
[21]
  viability, T/C: 51.6%
[22]
  viability, T/C: 40.8%
[23]
  viability, T/C: 36.1%
[24]
  viability, T/C: 30.8%
[25]
  viability, T/C: 64.2%
[26]
  viability, T/C: 56.1%
[27]
  viability, T/C: 41.7%
[28]
  viability, T/C: 36.6%
[29]
  viability, T/C: 37.3%
[30]
  viability, T/C: 27.8%
[31]
  viability, T/C: 65.5%
[32]
  viability, T/C: 56.4%
[33]
  viability, T/C: 41.8%
[34]
  viability, T/C: 37.4%
[35]
  viability, T/C: 33.4%
[36]
  viability, T/C: 28.4%

## COc1cccc2c1C(=O)c1c(O)c3c(c(O)c1C2=O)CC(O)(C(=O)CO)CC3OC1CC(N)C(O)C(C)O1 (stereo unspecified) + Cc1[nH]c2ccc(F)cc2c1-c1nc2c3cccnc3c3ncccc3c2[nH]1
Second compound 0.0316 µM
  IC50: 89.7 nM
Second compound 0.1 µM
  IC50: 94.6 nM
Second compound 0.316 µM
  IC50: 82.3 nM
Second compound 1 µM
  IC50: 73 nM
Second compound 3.16 µM
  IC50: 45.4 nM
Second compound 10 µM
  IC50: 39.7 nM
[1]
  viability, T/C: 64.4%
[2]
  viability, T/C: 47.5%
[3]
  viability, T/C: 32%
[4]
  viability, T/C: 21.5%
[5]
  viability, T/C: 2.36%
[6]
  viability, T/C: 1.69%
[7]
  viability, T/C: 65.3%
[8]
  viability, T/C: 46.2%
[9]
  viability, T/C: 35.3%
[10]
  viability, T/C: 20.6%
[11]
  viability, T/C: 1.91%
[12]
  viability, T/C: 1.66%
[13]
  viability, T/C: 62.5%
[14]
  viability, T/C: 46%
[15]
  viability, T/C: 32.3%
[16]
  viability, T/C: 20.3%
[17]
  viability, T/C: 2.16%
[18]
  viability, T/C: 1.4%
[19]
  viability, T/C: 62.2%
[20]
  viability, T/C: 44%
[21]
  viability, T/C: 30.6%
[22]
  viability, T/C: 20.6%
[23]
  viability, T/C: 1.92%
[24]
  viability, T/C: 1.57%
[25]
  viability, T/C: 54.4%
[26]
  viability, T/C: 40.2%
[27]
  viability, T/C: 30.9%
[28]
  viability, T/C: 18.6%
[29]
  viability, T/C: 2.97%
[30]
  viability, T/C: 1.41%
[31]
  viability, T/C: 52.9%
[32]
  viability, T/C: 39.7%
[33]
  viability, T/C: 30.1%
[34]
  viability, T/C: 19.4%
[35]
  viability, T/C: 2.39%
[36]
  viability, T/C: 1.46%

## Nc1ccn(C2OC(CO)C(O)C2(F)F)c(=O)n1 (stereo unspecified) + Cc1[nH]c2ccc(F)cc2c1-c1nc2c3cccnc3c3ncccc3c2[nH]1
Second compound 0.0316 µM
  IC50: < 31.6 nM
Second compound 0.1 µM
  IC50: < 31.6 nM
Second compound 0.316 µM
  IC50: < 31.6 nM
Second compound 1 µM
  IC50: < 31.6 nM
Second compound 3.16 µM
  IC50: < 31.6 nM
Second compound 10 µM
  IC50: < 31.6 nM
[1]
  viability, T/C: 29.7%
[2]
  viability, T/C: 25.6%
[3]
  viability, T/C: 25.9%
[4]
  viability, T/C: 26.4%
[5]
  viability, T/C: 22.9%
[6]
  viability, T/C: 24.4%
[7]
  viability, T/C: 33.2%
[8]
  viability, T/C: 24.3%
[9]
  viability, T/C: 26.4%
[10]
  viability, T/C: 27.3%
[11]
  viability, T/C: 24.8%
[12]
  viability, T/C: 20.9%
[13]
  viability, T/C: 31.2%
[14]
  viability, T/C: 28.8%
[15]
  viability, T/C: 26.1%
[16]
  viability, T/C: 24.2%
[17]
  viability, T/C: 27.1%
[18]
  viability, T/C: 19.9%
[19]
  viability, T/C: 30.9%
[20]
  viability, T/C: 25.6%
[21]
  viability, T/C: 26%
[22]
  viability, T/C: 25.9%
[23]
  viability, T/C: 24%
[24]
  viability, T/C: 20.1%
[25]
  viability, T/C: 26.1%
[26]
  viability, T/C: 24.4%
[27]
  viability, T/C: 22.6%
[28]
  viability, T/C: 23.4%
[29]
  viability, T/C: 25.7%
[30]
  viability, T/C: 17.9%
[31]
  viability, T/C: 26.8%
[32]
  viability, T/C: 24.5%
[33]
  viability, T/C: 23.8%
[34]
  viability, T/C: 24.1%
[35]
  viability, T/C: 22.5%
[36]
  viability, T/C: 18.8%
